Assay results from patent publication US9371337B2, “β-lactamase inhibitors” (The Regents of the University of California, priority 2011, dated 2016).

Biological target: T1, Trypsin (UniProt P00760)
T1 construct: IC50 (Estimated from single concentration measurement); Ki
T1 sequence (P00760 1-246): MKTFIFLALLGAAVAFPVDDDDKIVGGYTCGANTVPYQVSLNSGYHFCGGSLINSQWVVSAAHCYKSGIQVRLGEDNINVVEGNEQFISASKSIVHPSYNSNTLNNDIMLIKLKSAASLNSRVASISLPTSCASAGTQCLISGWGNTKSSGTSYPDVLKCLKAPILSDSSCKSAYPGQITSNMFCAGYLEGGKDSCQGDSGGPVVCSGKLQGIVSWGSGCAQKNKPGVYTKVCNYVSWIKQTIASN
Test: Trypsin inhibition
Assay type: biochemical
Conditions: Table 4b, 100 μM inhibitor

Structure (SMILES)	Percentage activity with 100 μM inhibitor
O=S(=O)(NCB(O)O)c1ccc(-c2nn[nH]n2)cc1Cl [CR190, [2-chloro-4-(3-tetrazol-5-yl)benzensulfonylamino]methaneboronic acid]	95

Same assay, conditions: Table 4c, 100 μM inhibitor

Structure (SMILES)	Percentage inhibition with 100 μM inhibitor
O=S(=O)(NCB(O)O)c1ccc(-c2nn[nH]n2)cc1Cl [CR190, [2-chloro-4-(3-tetrazol-5-yl)benzensulfonylamino]methaneboronic acid]	5

Same assay, conditions: read-out: IC50 (Estimated from single concentration measurement); Table 4e

Structure (SMILES)	potency estimated from few doses [µM]
O=S(=O)(NCB(O)O)c1ccc(-c2nn[nH]n2)cc1Cl [CR190, [2-chloro-4-(3-tetrazol-5-yl)benzensulfonylamino]methaneboronic acid]	1900

Tested on: Trypsin
Test: Trypsin inhibition
Assay type: biochemical
Conditions: Table 4h, Trypsin vs AmpC

Structure (SMILES)	Selectivity vs AmpC (comparison of IC50 values)
O=S(=O)(NCB(O)O)c1ccc(-c2nn[nH]n2)cc1Cl [CR190, [2-chloro-4-(3-tetrazol-5-yl)benzensulfonylamino]methaneboronic acid]	1187500

Tested on: Elastase
Test: Elastase inhibition
Assay type: biochemical
Conditions: Table 4h, Elastase vs AmpC
Excerpt: (§1) To assess the selectivity of the new molecules we determined Ki values against three common serine proteases, Trypsin, Elastase and α-Chymotrypsin, as well as that of a class A β-lactamase, CTX-M-9 (Table 10) (Pouvreau L, et al. (1998), FEBS Lett 423:167-172; Del Mar E G, et al. (1980), Biochemistry 19:468-472; Rodriguez-Martinez J A, et al. (2009), Biotechnol Lett 31:883-887; Chen Y, et al. (2005), J Mol Biol 348:349-362).

Structure (SMILES)	Selectivity vs AmpC (comparison of IC50 values)
O=S(=O)(NCB(O)O)c1ccc(-c2nn[nH]n2)cc1Cl [CR190, [2-chloro-4-(3-tetrazol-5-yl)benzensulfonylamino]methaneboronic acid]	30784

Biological target: T2, AmpC β-lactamase (Escherichia coli, UniProt P00811)
T2 construct: made in house
Test: not given
Assay type: biochemical
Conditions: Lineweaver-Burk analysis, competition with substrate CENTA

T2 sequence (P00811 20-377): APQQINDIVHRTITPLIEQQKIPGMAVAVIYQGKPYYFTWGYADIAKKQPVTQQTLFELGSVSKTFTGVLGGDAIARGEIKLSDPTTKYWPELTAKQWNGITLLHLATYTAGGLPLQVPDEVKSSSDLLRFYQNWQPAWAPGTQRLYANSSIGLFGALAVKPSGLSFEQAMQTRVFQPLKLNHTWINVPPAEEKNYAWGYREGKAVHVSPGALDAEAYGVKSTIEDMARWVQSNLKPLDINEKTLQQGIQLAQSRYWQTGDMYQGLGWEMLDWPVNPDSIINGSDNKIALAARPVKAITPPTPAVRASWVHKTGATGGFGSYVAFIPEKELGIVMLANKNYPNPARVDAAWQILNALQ

Structure (SMILES)	type of inhibition
O=S(=O)(NCB(O)O)c1ccc(-c2nn[nH]n2)cc1Cl [CR190, [2-chloro-4-(3-tetrazol-5-yl)benzensulfonylamino]methaneboronic acid]	competitive

Same assay, conditions: enzyme incubation and dilution experiments

Structure (SMILES)	time dependence of inhibition (incubation effect, off-rate)
O=S(=O)(NCB(O)O)c1ccc(-c2nn[nH]n2)cc1Cl [CR190, [2-chloro-4-(3-tetrazol-5-yl)benzensulfonylamino]methaneboronic acid]	slow off-rate

Tested on: not given
Test: not given
Conditions: not given

Structure (SMILES)	melting point
O=S(=O)(NCB(O)O)c1ccc(-c2nn[nH]n2)cc1Cl [CR190, [2-chloro-4-(3-tetrazol-5-yl)benzensulfonylamino]methaneboronic acid]	110 to 113 °C (dec.)

Biological target: T3, α-chymotrypsin (bovine pancreatic) (Bos taurus, UniProt P00766)
T3 construct: purchased Sigma-Aldrich
Test: α-Chymotrypsin inhibition
Assay type: biochemical
Conditions: Table 4b, 100 μM inhibitor; read-out: Percentage activity with 100 μM inhibitor
Procedure: α-Chymotrypsin assays were performed in 50 mM Tris buffer pH 7.5 with 0.01% Triton-X. Inhibitor and 0.001 mg/mL enzyme were incubated at their final concentration for 10 min before the reaction was initiated by the addition of 200 μM N-succinyl-Ala-Ala-Pro-Phe p-nitroanilide and monitored at 410 nm.
as §1

Structure (SMILES)	activity at 100 µM [%]
O=S(=O)(NCB(O)O)c1ccc(-c2nn[nH]n2)cc1Cl [CR190, [2-chloro-4-(3-tetrazol-5-yl)benzensulfonylamino]methaneboronic acid]	85

Same assay, conditions: Table 4e; read-out: IC50 (Estimated from single concentration measurement)

Structure (SMILES)	potency estimated from few doses [µM]
O=S(=O)(NCB(O)O)c1ccc(-c2nn[nH]n2)cc1Cl [CR190, [2-chloro-4-(3-tetrazol-5-yl)benzensulfonylamino]methaneboronic acid]	567

Same assay, conditions: Table 10, α-Chymotrypsin

Structure (SMILES)	Ki [µM]
O=S(=O)(NCB(O)O)c1ccc(-c2nn[nH]n2)cc1Cl [CR190, [2-chloro-4-(3-tetrazol-5-yl)benzensulfonylamino]methaneboronic acid]	141

Same assay, conditions: Table 4h, Chymotrypsin vs AmpC

Structure (SMILES)	Selectivity vs AmpC (comparison of IC50 values)
O=S(=O)(NCB(O)O)c1ccc(-c2nn[nH]n2)cc1Cl [CR190, [2-chloro-4-(3-tetrazol-5-yl)benzensulfonylamino]methaneboronic acid]	354167

Same assay, conditions: read-out: Percentage inhibition with 100 μM inhibitor

Structure (SMILES)	inhibition at 100 µM [%]
O=S(=O)(NCB(O)O)c1ccc(-c2nn[nH]n2)cc1Cl [CR190, [2-chloro-4-(3-tetrazol-5-yl)benzensulfonylamino]methaneboronic acid]	15

Biological target: T1, Trypsin
Test: Trypsin inhibition
Assay type: biochemical
Conditions: Table 10, Trypsin
Excerpt: as §1

Structure (SMILES)	Ki [µM]
O=S(=O)(NCB(O)O)c1ccc(-c2nn[nH]n2)cc1Cl [CR190, [2-chloro-4-(3-tetrazol-5-yl)benzensulfonylamino]methaneboronic acid]	350

Biological target: T2, AmpC β-lactamase
Test: biochemical
Assay type: biochemical
Conditions: not given
Procedure: FIG. 18. Representative IC50 curves. […] IC50 curves were obtained by measuring rates (in duplicates) at different inhibitor concentrations (x-axis) and by determining the residual activity (y-axis, in percentage). IC50 values were determined by non-linear regression and Ki values calculated using GraphPad software assuming competitive inhibition.
Sulfonamidomethaneboronic acids were dissolved in 100% DMSO at a concentration of 100 mM; more diluted stocks were prepared as necessary. […] The enzyme was expressed and purified as described (Usher, K. C. et al., Biochemistry 1998, 37, 16082-16092) and CENTA was purchased from Tydock Pharma.
Kinetic measurements were run at room temperature in 50 mM sodium-cacodylate pH 6.5 in the presence of 0.01% Triton-X to prevent non-specific inhibition via compound aggregation. […] (Kettner, C. A. and Shenvi, A. B., J. Biol. Chem. 1984, 259, 15106-15114) Reactions were performed in 1 mL cuvettes with 60 μM CENTA and initiated by adding 1.2 nM enzyme. […] (Weston, G. S. et al., J. Med. Chem. 1998, 41, 4577-4586) The first 180 sec of each reaction were used to measure initial rates. IC50 values were obtained by fitting binding data to a sigmoidal dose-response equation using GraphPad Prism (GraphPad software, Inc). Ki values were determined by the use of Cheng-Prusoff equation. (Cheng, Y. and Prusoff, W. H., Biochem. Pharmacol. 1973, 22, 3099-3108)

Structure (SMILES)	IC50 [µM]
O=S(=O)(NCB(O)O)c1ccc(-c2nn[nH]n2)cc1Cl [CR190, [2-chloro-4-(3-tetrazol-5-yl)benzensulfonylamino]methaneboronic acid]	0.0016

Same assay, conditions: Ki (from multi- or single concentration measurements), Table 4g

Structure (SMILES)	Ki [µM]
O=S(=O)(NCB(O)O)c1ccc(-c2nn[nH]n2)cc1Cl [CR190, [2-chloro-4-(3-tetrazol-5-yl)benzensulfonylamino]methaneboronic acid]	0.0002

Same assay, conditions: Ki Vs AmpC, Table 7

Structure (SMILES)	Ki [µM]
O=S(=O)(NCB(O)O)c1ccc(-c2nn[nH]n2)cc1Cl [CR190, [2-chloro-4-(3-tetrazol-5-yl)benzensulfonylamino]methaneboronic acid]	0.0002

Same assay, conditions: Ki vs AmpC, Table 8

Structure (SMILES)	Ki [µM]
O=S(=O)(NCB(O)O)c1ccc(-c2nn[nH]n2)cc1Cl [CR190, [2-chloro-4-(3-tetrazol-5-yl)benzensulfonylamino]methaneboronic acid]	0.0002

Same assay, conditions: Ki, Table 5

Structure (SMILES)	Ki [µM]
O=S(=O)(NCB(O)O)c1ccc(-c2nn[nH]n2)cc1Cl [CR190, [2-chloro-4-(3-tetrazol-5-yl)benzensulfonylamino]methaneboronic acid]	0.0002

Same assay, conditions: Ki, Table 10, AmpC

Structure (SMILES)	Ki [µM]
O=S(=O)(NCB(O)O)c1ccc(-c2nn[nH]n2)cc1Cl [CR190, [2-chloro-4-(3-tetrazol-5-yl)benzensulfonylamino]methaneboronic acid]	0.0002

Same assay, conditions: Ki, running text and FIG. 18; substrate CENTA 105 μM

Structure (SMILES)	Ki [µM]
O=S(=O)(NCB(O)O)c1ccc(-c2nn[nH]n2)cc1Cl [CR190, [2-chloro-4-(3-tetrazol-5-yl)benzensulfonylamino]methaneboronic acid]	0.0002

Same assay, conditions: Table 5

Structure (SMILES)	Ligand efficiency
O=S(=O)(NCB(O)O)c1ccc(-c2nn[nH]n2)cc1Cl [CR190, [2-chloro-4-(3-tetrazol-5-yl)benzensulfonylamino]methaneboronic acid]	0.65

Same assay, conditions: ratio of Ki values

Structure (SMILES)	improved affinity compared to CR157 [fold]
O=S(=O)(NCB(O)O)c1ccc(-c2nn[nH]n2)cc1Cl [CR190, [2-chloro-4-(3-tetrazol-5-yl)benzensulfonylamino]methaneboronic acid]	6

Biological target: CTX-M-9 β-lactamase (Escherichia coli, UniProt Q9L5C8)
Test: biochemical
Assay type: biochemical
Conditions: not given
Procedure: Reactions were initiated by the addition of 0.3 nM enzyme and monitored at 405 nm.
as §1

Chain of CTX-M-9 β-lactamase (Q9L5C8 29-291): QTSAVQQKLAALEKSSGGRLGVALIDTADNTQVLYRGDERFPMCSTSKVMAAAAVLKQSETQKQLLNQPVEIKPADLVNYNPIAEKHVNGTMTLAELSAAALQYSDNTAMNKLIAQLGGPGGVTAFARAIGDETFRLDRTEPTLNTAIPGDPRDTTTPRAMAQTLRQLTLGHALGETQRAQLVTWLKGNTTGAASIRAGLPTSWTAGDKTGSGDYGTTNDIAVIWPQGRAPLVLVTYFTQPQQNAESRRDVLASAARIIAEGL

Structure (SMILES)	IC50 [µM]
O=S(=O)(NCB(O)O)c1ccc(-c2nn[nH]n2)cc1Cl [CR190, [2-chloro-4-(3-tetrazol-5-yl)benzensulfonylamino]methaneboronic acid]	4

Same assay, conditions: Table 8; read-out: Ki vs CTX-M-9

Structure (SMILES)	Ki [µM]
O=S(=O)(NCB(O)O)c1ccc(-c2nn[nH]n2)cc1Cl [CR190, [2-chloro-4-(3-tetrazol-5-yl)benzensulfonylamino]methaneboronic acid]	1.4

Same assay, conditions: Table 4h, CTX-M-9 vs AmpC

Structure (SMILES)	Selectivity vs AmpC (comparison of IC50 values)
O=S(=O)(NCB(O)O)c1ccc(-c2nn[nH]n2)cc1Cl [CR190, [2-chloro-4-(3-tetrazol-5-yl)benzensulfonylamino]methaneboronic acid]	2346

Same assay, conditions: read-out: IC50 (Estimated from single concentration measurement)

Structure (SMILES)	potency estimated from few doses [µM]
O=S(=O)(NCB(O)O)c1ccc(-c2nn[nH]n2)cc1Cl [CR190, [2-chloro-4-(3-tetrazol-5-yl)benzensulfonylamino]methaneboronic acid]	4

Same assay, conditions: read-out: Percentage inhibition with 16 μM inhibitor

Structure (SMILES)	inhibition at 16 µM [%]
O=S(=O)(NCB(O)O)c1ccc(-c2nn[nH]n2)cc1Cl [CR190, [2-chloro-4-(3-tetrazol-5-yl)benzensulfonylamino]methaneboronic acid]	81

Tested on: clinical strains resistant to third-generation cephalosporins
Test: MIC distribution of third-generation cephalosporins alone or with compounds over clinical strains
Assay type: cell-based
Conditions: cephalosporins combined with the compound
Procedure: The anti-resistance activity of inhibitors was investigated by the determination of the minimum inhibitory concentrations (MICs) of the β-lactam/inhibitor combination necessary to inhibit the growth of clinically-isolated bacteria resistant to third-generation cephalosporins via expression of class A or class C β-lactamases (Table 6).
Susceptibility testing was performed and interpreted following the guidelines of CLSI. (Clinical and Laboratory Standards Institute, Performance standards for antimicrobial susceptibility testing, 20th Informational Supplement, M100-S20 2010) The compounds were dissolved in 50% DMSO, and dilutions were performed using Muller-Hinton medium. An adequate final concentration was obtained to determine the minimum inhibitory concentrations (MICs). The concentration of DMSO was maintained below 5%. The inhibitors were tested for synergy with the third-generation β-lactams ceftazidime and cefotaxime against several clinical bacteria. The ratio of β-lactams to inhibitors was 1:4. Each value reported reflects the average of three independent experiments. […] The Friedman's test and the Wilcoxon signed rank test were used to compare MIC values. Statistical significance was established at p<0.05.

Structure (SMILES)	clinical isolates for which MICs dropped into the susceptible range (MICs≦1 μg/mL) [%]
O=S(=O)(NCB(O)O)c1ccc(-c2nn[nH]n2)cc1Cl [CR190, [2-chloro-4-(3-tetrazol-5-yl)benzensulfonylamino]methaneboronic acid]	50

Same assay, conditions: third-generation cephalosporins in combination with the compound

Structure (SMILES)	MIC 25% percentile [µg/mL]	MIC 75% percentile [µg/mL]
O=S(=O)(NCB(O)O)c1ccc(-c2nn[nH]n2)cc1Cl [CR190, [2-chloro-4-(3-tetrazol-5-yl)benzensulfonylamino]methaneboronic acid]	0.5	2.0
